Where two headings read alike, the source gives them in different places.
Legend:
[1] = Centrifuge Retention Capacity (CRC), EDANA test method No. 441.2-02; assay type: physicochemical
urease (from jack beans) = urease (from jack beans) (Canavalia ensiformis, UniProt P07374); conditions: 23° C.
Description: The measurements should be carried out, unless otherwise stated, at an ambient temperature of 23±2° C. and a relative humidity of 50±10%. The water-absorbing polymers are thoroughly commixed prior to the measurement.
To determine the odor-preventing effect, 2 g of each of the compositions produced above were placed in a 100 ml Erlenmeyer flask and admixed with a freshly prepared solution of 30 mg of urease (from jack beans; lyophilized 5 U/mg for urea assay in serum; Merck KGaA, Germany) and 50 ml of 0.9% sodium chloride solution, the sodium chloride solution containing 8.56 g/l of urea, and sealed with a stopper having an internal diffusion tubelet (Dräger® Röhrchen; ammonia 20/a-D, 20 to 1500 ppm*h). The measurement was discontinued after 6 hours. The test was carried out at 23° C.

[2] = 0.0500% by weight in composition with polymer from Example 1 (55 mol % neutralized)
[3] = 0.2000% by weight in composition with polymer from Example 1 (55 mol % neutralized)

Chain of urease (from jack beans) (P07374 whole entry, looked up): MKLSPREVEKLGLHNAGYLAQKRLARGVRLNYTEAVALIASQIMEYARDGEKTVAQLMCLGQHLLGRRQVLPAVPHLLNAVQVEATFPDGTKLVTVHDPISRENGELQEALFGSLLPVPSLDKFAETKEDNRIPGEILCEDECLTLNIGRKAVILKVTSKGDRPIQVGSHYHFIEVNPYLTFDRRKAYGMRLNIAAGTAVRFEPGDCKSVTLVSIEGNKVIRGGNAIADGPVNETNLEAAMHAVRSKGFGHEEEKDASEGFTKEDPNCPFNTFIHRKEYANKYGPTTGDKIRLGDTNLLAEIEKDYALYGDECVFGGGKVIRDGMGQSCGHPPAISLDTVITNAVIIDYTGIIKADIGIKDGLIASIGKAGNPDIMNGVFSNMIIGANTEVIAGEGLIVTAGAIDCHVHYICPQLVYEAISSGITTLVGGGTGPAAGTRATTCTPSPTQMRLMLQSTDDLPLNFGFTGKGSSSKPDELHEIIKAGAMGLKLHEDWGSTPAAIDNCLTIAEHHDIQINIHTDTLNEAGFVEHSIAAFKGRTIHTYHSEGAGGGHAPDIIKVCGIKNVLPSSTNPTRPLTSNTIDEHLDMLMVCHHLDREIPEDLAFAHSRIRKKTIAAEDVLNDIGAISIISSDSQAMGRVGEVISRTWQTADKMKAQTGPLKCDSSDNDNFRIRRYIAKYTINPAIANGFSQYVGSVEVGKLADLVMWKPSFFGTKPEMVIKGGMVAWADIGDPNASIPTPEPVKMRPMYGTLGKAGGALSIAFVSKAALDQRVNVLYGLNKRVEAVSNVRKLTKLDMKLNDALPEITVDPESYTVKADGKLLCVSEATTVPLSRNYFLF

Oc1ccc(O)cc1 [hydroquinone]
CRC ([1]; 0.0050% by weight in composition with polymer from Example 1 (55 mol % neutralized)): 28.5 g/g | CRC [1, 2]: 28.7 g/g | CRC [1, 3]: 25.3 g/g | CRC ([1]; 1.0000% by weight in composition with polymer from Example 1 (55 mol % neutralized)): 23.4 g/g | NH3 after 6 hours (urease (from jack beans); 0.0025% by weight in composition, degree of neutralization 55 mol %): 91 ppm | NH3 after 6 hours (urease (from jack beans); 0.0025% by weight in composition, degree of neutralization 60 mol %): 182 ppm | NH3 after 6 hours (urease (from jack beans); 0.0025% by weight in composition, degree of neutralization 72 mol %): 800 ppm | NH3 after 6 hours (urease (from jack beans); 0.0050% by weight in composition, degree of neutralization 55 mol %): 58 ppm | NH3 after 6 hours (urease (from jack beans); 0.0050% by weight in composition, degree of neutralization 60 mol %): 78 ppm | NH3 after 6 hours (urease (from jack beans); 0.0050% by weight in composition, degree of neutralization 72 mol %): 381 ppm | NH3 after 6 hours (urease (from jack beans); 0.0100% by weight in composition, degree of neutralization 55 mol %): 29 ppm | NH3 after 6 hours (urease (from jack beans); 0.0100% by weight in composition, degree of neutralization 60 mol %): 45 ppm | NH3 after 6 hours (urease (from jack beans); 0.0100% by weight in composition, degree of neutralization 72 mol %): 214 ppm | NH3 after 6 hours (urease (from jack beans); 0.0200% by weight in composition, degree of neutralization 55 mol %): 0 ppm | NH3 after 6 hours (urease (from jack beans); 0.0200% by weight in composition, degree of neutralization 60 mol %): 10 ppm | NH3 after 6 hours (urease (from jack beans); 0.0200% by weight in composition, degree of neutralization 72 mol %): 63 ppm | NH3 after 6 hours (urease (from jack beans); 0.0500% by weight in composition, degree of neutralization 55 mol %): 0 ppm | NH3 after 6 hours (urease (from jack beans); 0.0500% by weight in composition, degree of neutralization 60 mol %): 0 ppm | NH3 after 6 hours (urease (from jack beans); 0.0500% by weight in composition, degree of neutralization 72 mol %): 15 ppm | NH3 after 6 hours (urease (from jack beans); 0.2000% by weight in composition, degree of neutralization 55 mol %): 0 ppm | NH3 after 6 hours (urease (from jack beans); 0.2000% by weight in composition, degree of neutralization 60 mol %): 0 ppm | NH3 after 6 hours (urease (from jack beans); 0.2000% by weight in composition, degree of neutralization 72 mol %): 0 ppm | NH3 after 6 hours (urease (from jack beans); 1.0000% by weight in composition, degree of neutralization 55 mol %): 0 ppm | NH3 after 6 hours (urease (from jack beans); 1.0000% by weight in composition, degree of neutralization 60 mol %): 0 ppm | NH3 after 6 hours (urease (from jack beans); 1.0000% by weight in composition, degree of neutralization 72 mol %): 0 ppm

[F-].[Na+] [sodium fluoride]
CRC [1, 2]: 29.1 g/g | CRC ([1]; 0.0900% by weight in composition with polymer from Example 1 (55 mol % neutralized)): 28.5 g/g | CRC [1, 3]: 24.1 g/g
